Assay results reported in patent US20260262643A1, “HERBICIDAL BENZOXAZINES” (FMC CORPORATION, priority 2022, published 2026).

What was measured:
[1] = system: kochia; experiment: Test A preemergence; format: in vivo, Bassia scoparia; details: 1000 g ai/ha, 0 to 100 scale (0 no effect, 100 complete control), 10 days; for pest or weed control at 1000 g/ha: Bassia scoparia, pre-emergence, 240 h, read-out: Plant response rating, Kochia
Text: (§1) Seeds of plant species selected from barnyardgrass (Echinochloa crusgalli), blackgrass (Alopecurus myosuroides), corn (Zea mays), foxtail, giant (giant foxtail, Setaria faberi), goosegrass (Eleusine indica), kochia (Bassia scoparia), oat, wild (wild oat, Avena fatua), pigweed, palmer (palmer amaranth, palmer pigweed, Amaranthus palmeri), Pigweed, Redroot (redroot pigweed, Amaranthus retroflexus), ragweed (common ragweed, Ambrosia artemisiifolia), ryegrass, Italian (italian ryegrass, Lolium multiflorum), soybean (Glycine max), and wheat (Triticum aestivum) were planted into a blend of loam soil and sand and treated preemergence with a directed soil spray using test chemicals formulated in a non-phytotoxic solvent mixture which included a surfactant. At the same time, plants selected from these crops and weed species and also galium (catchweed bedstraw, Galium aparine) and horseweed (Erigeron canadensis) were planted in pots containing the same blend of loam soil and sand and treated with postemergence applications of test chemicals formulated in the same manner. Plants ranged in height from 2 to 10 cm and were in the one- to two-leaf stage for the postemergence treatment. Treated plants and untreated controls were maintained in a greenhouse for 10 days, after which time all treated plants were compared to untreated controls and visually evaluated for injury. Plant response ratings, summarized in Table A, are based on a 0 to 100 scale where 0 is no effect and 100 is complete control. A dash (-) response means no test result.

[2] = system: sedge, umbrella; experiment: Test B flooded paddy test; format: in vivo, Cyperus difformis; details: 250 g ai/ha, Flood, 13 days, 0 to 100 scale (0 no effect, 100 complete control); for pest or weed control at 250 g/ha: Cyperus difformis, 312 h, read-out: Plant response rating, Sedge, Umbrella
Description: (§2) Plant species in the flooded paddy test selected from barnyardgrass (Echinochloa crus-galli), ducksalad (Heteranthera limosa), rice (Oryza sativa), and sedge, umbrella (small-flower umbrella sedge, Cyperus difformis) were grown to the 2-leaf stage for testing. At time of treatment, test pots were flooded to 3 cm above the soil surface, treated by application of test compounds directly to the paddy water, and then maintained at that water depth for the duration of the test. Treated plants and controls were maintained in a greenhouse for 13 days, after which time all species were compared to controls and visually evaluated. Plant response ratings, summarized in Table B, are based on a scale of 0 to 100 where 0 is no effect and 100 is complete control. A dash (-) response means no test result.

[3] = system: goosegrass; experiment: Test A preemergence; format: in vivo, Eleusine indica; details: 1000 g ai/ha, 0 to 100 scale (0 no effect, 100 complete control), 10 days; for pest or weed control at 1000 g/ha: Eleusine indica, pre-emergence, 240 h, read-out: Plant response rating, Goosegrass
Text: as §1

[4] = system: horseweed; experiment: Test A postemergence; format: in vivo, Erigeron canadensis; details: 1000 g ai/ha, Postemergence, 0 to 100 scale; for pest or weed control at 1000 g/ha: Erigeron canadensis, post-emergence, 240 h, read-out: Plant response rating, Horseweed
Text: as §1

[5] = system: ragweed; experiment: Test A preemergence; format: in vivo, Ambrosia artemisiifolia; details: 1000 g ai/ha, 0 to 100 scale (0 no effect, 100 complete control), 10 days; for pest or weed control at 1000 g/ha: Ambrosia artemisiifolia, pre-emergence, 240 h, read-out: Plant response rating, Ragweed
Text: as §1

[6] = system: rice; experiment: Test B flooded paddy test; format: in vivo, Oryza sativa; details: 250 g ai/ha, Flood, 13 days, 0 to 100 scale (0 no effect, 100 complete control); for plant injury at 250 g/ha: Oryza sativa, 312 h, read-out: Plant response rating, Rice
Description: as §2

[7] = system: goosegrass; experiment: Test A postemergence; format: in vivo, Eleusine indica; details: 1000 g ai/ha, Postemergence, 0 to 100 scale; for pest or weed control at 1000 g/ha: Eleusine indica, post-emergence, 240 h, read-out: Plant response rating, Goosegrass
Text: as §1

[8] = system: ryegrass, Italian; experiment: Test A postemergence; format: in vivo, Lolium multiflorum; details: 1000 g ai/ha, Postemergence, 0 to 100 scale; for pest or weed control at 1000 g/ha: Lolium multiflorum, post-emergence, 240 h, read-out: Plant response rating, Ryegrass, Italian
Text: as §1

[9] = system: blackgrass; experiment: Test A preemergence; format: in vivo, Alopecurus myosuroides; details: 1000 g ai/ha, 0 to 100 scale (0 no effect, 100 complete control), 10 days; for pest or weed control at 1000 g/ha: Alopecurus myosuroides, pre-emergence, 240 h, read-out: Plant response rating, Blackgrass
Text: as §1

[10] = system: ragweed; experiment: Test A postemergence; format: in vivo, Ambrosia artemisiifolia; details: 1000 g ai/ha, Postemergence, 0 to 100 scale; for pest or weed control at 1000 g/ha: Ambrosia artemisiifolia, post-emergence, 240 h, read-out: Plant response rating, Ragweed
Text: as §1

[11] = system: barnyardgrass; experiment: Test B flooded paddy test; format: in vivo, Echinochloa crus-galli; details: 250 g ai/ha, Flood, 13 days, 0 to 100 scale (0 no effect, 100 complete control); for pest or weed control at 250 g/ha: Echinochloa crus-galli, 312 h, read-out: Plant response rating, Barnyardgrass
Description: as §2

[12] = system: ducksalad; experiment: Test B flooded paddy test; format: in vivo, Heteranthera limosa; details: 250 g ai/ha, Flood, 13 days, 0 to 100 scale (0 no effect, 100 complete control); for pest or weed control at 250 g/ha: Heteranthera limosa, 312 h, read-out: Plant response rating, Ducksalad
Description: as §2

[13] = system: foxtail, giant; experiment: Test A postemergence; format: in vivo, Setaria faberi; details: 1000 g ai/ha, Postemergence, 0 to 100 scale; for pest or weed control at 1000 g/ha: Setaria faberi, post-emergence, 240 h, read-out: Plant response rating, Foxtail, Giant
Text: as §1

[14] = system: ryegrass, Italian; experiment: Test A preemergence; format: in vivo, Lolium multiflorum; details: 1000 g ai/ha, 0 to 100 scale (0 no effect, 100 complete control), 10 days; for pest or weed control at 1000 g/ha: Lolium multiflorum, pre-emergence, 240 h, read-out: Plant response rating, Ryegrass, Italian
Text: as §1

[15] = system: blackgrass; experiment: Test A postemergence; format: in vivo, Alopecurus myosuroides; details: 1000 g ai/ha, Postemergence, 0 to 100 scale; for pest or weed control at 1000 g/ha: Alopecurus myosuroides, post-emergence, 240 h, read-out: Plant response rating, Blackgrass
Text: as §1

[16] = system: foxtail, giant; experiment: Test A preemergence; format: in vivo, Setaria faberi; details: 1000 g ai/ha, 0 to 100 scale (0 no effect, 100 complete control), 10 days; for pest or weed control at 1000 g/ha: Setaria faberi, pre-emergence, 240 h, read-out: Plant response rating, Foxtail, Giant
Text: as §1

[17] = system: pigweed, palmer; experiment: Test A postemergence; format: in vivo, Amaranthus palmeri; details: 1000 g ai/ha, Postemergence, 0 to 100 scale; for pest or weed control at 1000 g/ha: Amaranthus palmeri, post-emergence, 240 h, read-out: Plant response rating, Pigweed, Palmer
Text: as §1

[18] = system: pigweed, palmer; experiment: Test A preemergence; format: in vivo, Amaranthus palmeri; details: 1000 g ai/ha, 0 to 100 scale (0 no effect, 100 complete control), 10 days; for pest or weed control at 1000 g/ha: Amaranthus palmeri, pre-emergence, 240 h, read-out: Plant response rating, Pigweed, Palmer
Text: as §1

[19] = system: kochia; experiment: Test A postemergence; format: in vivo, Bassia scoparia; details: 1000 g ai/ha, Postemergence, 0 to 100 scale; for pest or weed control at 1000 g/ha: Bassia scoparia, post-emergence, 240 h, read-out: Plant response rating, Kochia
Text: as §1

[20] = system: galium; experiment: Test A postemergence; format: in vivo, Galium aparine; details: 1000 g ai/ha, Postemergence, 0 to 100 scale; for pest or weed control at 1000 g/ha: Galium, post-emergence, 240 h, read-out: Plant response rating, Galium
Text: as §1

Structure (SMILES)	pest or weed control at 1000 g/ha [1] [%]	pest or weed control at 250 g/ha [2] [%]	pest or weed control at 1000 g/ha [3] [%]	pest or weed control at 1000 g/ha [4] [%]	pest or weed control at 1000 g/ha [5] [%]	plant injury at 250 g/ha [6] [%]	pest or weed control at 1000 g/ha [7] [%]	pest or weed control at 1000 g/ha [8] [%]	pest or weed control at 1000 g/ha [9] [%]	pest or weed control at 1000 g/ha [10] [%]	pest or weed control at 250 g/ha [11] [%]	pest or weed control at 250 g/ha [12] [%]	pest or weed control at 1000 g/ha [13] [%]	pest or weed control at 1000 g/ha [14] [%]	pest or weed control at 1000 g/ha [15] [%]	pest or weed control at 1000 g/ha [16] [%]	pest or weed control at 1000 g/ha [17] [%]	pest or weed control at 1000 g/ha [18] [%]	pest or weed control at 1000 g/ha [19] [%]	pest or weed control at 1000 g/ha [20] [%]	also measured
COc1cccc2c1OC(C)CN2C(=O)c1cccc(-n2cncn2)c1 (stereo not shown) [Compound 41]																					Plant response rating, Kochia [1]: 0; Plant response rating, Sedge, Umbrella [2]: 55; Plant response rating, Goosegrass [3]: 90; Plant response rating, Horseweed [4]: 0; Plant response rating, Ragweed [5]: 0; Plant response rating, Rice [6]: 0; Plant response rating, Goosegrass [7]: 0; Plant response rating, Ryegrass, Italian [8]: 60; Plant response rating, Blackgrass [9]: 30; Plant response rating, Ragweed [10]: 0; Plant response rating, Barnyardgrass [11]: 0; Plant response rating, Ducksalad [12]: 50; Plant response rating, Foxtail, Giant [13]: 60; Plant response rating, Ryegrass, Italian [14]: 70; Plant response rating, Blackgrass [15]: 50; Plant response rating, Foxtail, Giant [16]: 90; Plant response rating, Pigweed, Palmer [17]: 20; Plant response rating, Pigweed, Palmer [18]: 30; Plant response rating, Kochia [19]: 20; Plant response rating, Galium [20]: 70
Cc1ccc(-n2cncn2)cc1C(=O)N1CC(C)Oc2c(Cl)cccc21 (stereo not shown) [Compound 33]																					Plant response rating, Kochia [1]: 70; Plant response rating, Sedge, Umbrella [2]: 65; Plant response rating, Goosegrass [3]: 100; Plant response rating, Horseweed [4]: 30; Plant response rating, Ragweed [5]: 100; Plant response rating, Rice [6]: 0; Plant response rating, Goosegrass [7]: 90; Plant response rating, Ryegrass, Italian [8]: 100; Plant response rating, Blackgrass [9]: 100; Plant response rating, Ragweed [10]: 80; Plant response rating, Barnyardgrass [11]: 30; Plant response rating, Ducksalad [12]: 30; Plant response rating, Foxtail, Giant [13]: 100; Plant response rating, Ryegrass, Italian [14]: 100; Plant response rating, Blackgrass [15]: 90; Plant response rating, Foxtail, Giant [16]: 100; Plant response rating, Pigweed, Palmer [17]: 100; Plant response rating, Pigweed, Palmer [18]: 100; Plant response rating, Kochia [19]: 70; Plant response rating, Galium [20]: 100
Cc1cccc2c1O[C@H](C(F)(F)F)CN2C(=O)c1cccc(-n2cncn2)c1 (single isomer, unassigned) [Compound 58]	20	0	90	0	0	0	20	30	40	10	0	0	30	90	20	80	20	80	60	60	
COCC1CN(C(=O)c2ccnc(-n3cncn3)c2)c2cccc(Cl)c2O1 (stereo not shown) [Compound 35, [8-Chloro-2,3-dihydro-2-(methoxymethyl)-4H-1,4-benzoxazin-4-yl][2-(1H-1,2,4-triazol-1-yl)-4-pyridinyl]methanone]	50	40	90	20	20	0	50	80	70	50	0	30	90	90	60	100	50	90	50	80	
Cc1cccc2c1O[C@@H](C(F)(F)F)CN2C(=O)c1cccc(-n2cncn2)c1 (single isomer, unassigned) [Compound 68]	90	65	100	0	70	0	90	90	80	60	0	55	90	100	80	100	50	100	80	100	
